In patent publication US12005056B2, “Centrally-active ghrelin agonist and medical uses thereof” (Helsinn Healthcare SA, priority 2018, dated 2024):

Biological target: T1, human GHSR1a receptor (Homo sapiens, UniProt Q92847)
T1 construct: expressed in transfected cells; host or cells: HEK293
Experiment: FLIPR assay in HEK293 cells stably expressing human GHSR1a receptor
Format: cell-based
Details: read-out: EC50, agonist activity in FLIPR assay
Method: HEK293 cells stably expressing human GHSR1a receptor were used in FLIPR assay. Cells were maintained under standard procedures. One day prior the test, cells were seeded at a density of 1.5×10^4/well in a Matrigel® coated 384-well plate with 30 μl of complete DMEM medium, and incubated at 37° C. in 5% CO2 for 22-26 hrs. On the test day, 4× loading dye was added into each well (10 μl per well for 384 well plates). Assay plates were incubated at 37° C. in the dark for 30 minutes. Then the dye content was removed by centrifugation at 300 rpm for 30 s. 40 μL HBSS/Hepes with 1 mM probenicid was added with Platemate Matrix (low speed setting, Thermo). The plate was then placed in FLIPR Tetra (Molecular Device) and 5× working concentrations of agonists were added by FLIPR. Fluorescence signal was detected with FLIPR at room temperature according to standard settings.

T1 sequence (Q92847 whole entry): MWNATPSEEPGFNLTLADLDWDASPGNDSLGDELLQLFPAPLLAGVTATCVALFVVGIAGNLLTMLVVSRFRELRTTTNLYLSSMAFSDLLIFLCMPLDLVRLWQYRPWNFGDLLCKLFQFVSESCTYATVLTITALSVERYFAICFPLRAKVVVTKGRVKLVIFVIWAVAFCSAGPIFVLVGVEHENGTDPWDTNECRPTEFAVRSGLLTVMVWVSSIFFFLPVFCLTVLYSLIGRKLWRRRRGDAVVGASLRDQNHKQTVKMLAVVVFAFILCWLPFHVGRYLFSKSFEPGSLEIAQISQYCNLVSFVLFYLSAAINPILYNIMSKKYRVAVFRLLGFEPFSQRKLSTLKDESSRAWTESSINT

For “3-(1-(2,3-dichloro-4-methoxyphenyl) ethyl)-1-methyl-1-(1,3,3-trimethylpiperidin-4-yl)urea monohydrochloride salt [Compound A]”, the EC50 was 1.25 ± 0.42 nM.
